According to patent publication US8252973B2, “Metabolic engineering of lipid metabolism by improving fatty acid binding and transport” (The Salk Institute for Biological Studies, priority 2006, dated 2012):

Tests used:
Assay type in all cases: binding
At279 (At3g63170) [1] = biological target: T1, At279 (At3g63170) (Arabidopsis thaliana, UniProt Q9M1X2); assay: LC-MS analysis of fatty acids bound to purified At279 protein; conditions: protein over-expressed in and purified from E. coli, ethanol extract, negative-ion ESI
T1 construct: At279 and At287 proteins were purified to homogeneity as described above; His tag (pHIS8 vector) (N, cleaved yes); made in house; host or cells: E. coli BL21 (DE3)
T1 sequence (Q9M1X2 1-279): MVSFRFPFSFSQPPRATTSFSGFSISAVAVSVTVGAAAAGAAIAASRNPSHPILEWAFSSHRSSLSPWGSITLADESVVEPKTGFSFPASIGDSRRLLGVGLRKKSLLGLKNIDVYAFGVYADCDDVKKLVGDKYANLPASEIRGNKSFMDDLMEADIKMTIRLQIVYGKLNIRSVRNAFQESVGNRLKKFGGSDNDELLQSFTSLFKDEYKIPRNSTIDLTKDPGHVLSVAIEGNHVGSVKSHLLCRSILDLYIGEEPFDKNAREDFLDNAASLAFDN
Experimental: (§1) Cloning, expression and purification of At3g63170 (At279) and At1g53520 (At287): Arabidopsis thaliana At3g63170 (At279) and At1g53520 (At287) genes were subcloned into the pHIS8 Escherichia coli expression vector derived from pET28a (+). For crystallization purpose, constructs of At279 and At287 lacking the transit peptide sequence found at the N-terminal region of the protein (˜50 amino acids) were also created. Transformed E. coli. BL21 (DE3) cells were incubated with shaking at 37° C. in Terrific broth containing 50 μg/ml kanamycin until A([…])=1.0. Protein expression was induced with 0.5 mM isopropyl 1-thio-β-galactopyranoside, and the cultures were incubated with shaking at 22° C. for an additional 6 h. Cells were harvested by centrifugation at 9,000×g and cell pellets re-suspended in lysis buffer (500 mM NaCl, 50 mM Tris-HCl (pH 8.0), 20 mM imidazole, 10% (v/v) glycerol 1% (v/v) Tween 20, 10 mM […]) supplemented with 1 mg/ml lysozyme. Following sonication and centrifugation of the lysed cell debris at 100,000×g, the supernatant was passed over a Ni2+-NTA column (Qiagen, Valencia, Calif.) equilibrated in lysis buffer, washed with 10 bed volumes of wash buffer (500 mM NaCl, 50 mM Tris-HCl (pH 8.0), 20 mM imidazole, 10 mM β-mercaptoethanol), and the His-tagged protein eluted with 10 bed volumes of elution buffer (500 mM NaCl, 50 mM Tris-HCl (pH 8.0), 250 mM imidazole, 10 mM β-mercaptoethanol). The N-terminal His tag was cleaved by thrombin digestion during a 24-h dialysis against digestion buffer (500 mM NaCl, 50 mM Tris (pH 8.0), 10 mM β-mercaptoethanol) at 4° C. Cleaved protein was isolated by running the dialyzed sample over another Ni2+-NTA column equilibrated in digestion buffer to remove the His tag and uncleaved protein, followed by a benzamidine-Sepharose column to remove thrombin. A Superdex S75 gel filtration column (Amersham Biosciences) equilibrated in gel filtration buffer (500 mM NaCl, 25 mM HEPES (pH 7.5), 2 mM dithiothreitol (DTT) was utilized to isolate homogeneous At279 and A287. Peak fractions were collected and dialyzed against crystallization storage buffer (100 mM NaCl, 25 mM HEPES (pH 7.5), 2 mM DTT). The resulting samples were subjected to SDS-PAGE and judged to be >95% pure based upon Coomassie staining. At279 and At287 were subsequently concentrated to 10-15 mg/ml and stored at −80° C.
(§2) At279 and At287 proteins were purified to homogeneity as described above. Ice-cold HPLC grade ethanol (600 μl) was added to the proteins (150 μl protein sample at 10 mg/ml previously dialyzed against 20 mM ammonium bicarbonate). The samples were vortexed and incubated at −20° C. for 3 days. For LC-MS analysis, the samples were centrifuged, and the supernatant containing the FAs was removed and placed in a new glass vial. The solvent was evaporated at 25° C., and the remaining residue resuspended in 200 μl propanol. The extracts were analyzed by liquid chromatography (LC) using an Agilent 1100 HPLC employing a Gemini reversed-phase C18 column (4.6×150 mm, 5 μ) running at a flow rate of 1 ml/min, and coupled to an electrospray ionization (ESI) XCT ion trap mass spectrometer (Agilent) operated in the negative-ion mode employing a continual introduction of a 20 mM ammonium acetate solution flowing at 100 μl/min. A linear gradient of acetonitrile (30-100% v/v) in 25 mM ammonium bicarbonate, pH 8, was used. The negative ion-ESI mass spectra of FA standards were as follows: Laurie acid (C12:0) (m/z)=198.7 ([M-H]-), Myristic acid (C14:0) (m/z)=226.9 ([M-H]-), Palmitic acid (C16:0)/m/z)=254.9 ([M-H]-) and Stearic acid (C18:0) (m/z)=282.9 ([M-H]-).

At279 (At3g63170) [2] = biological target: T2, At279 (At3g63170) (Arabidopsis thaliana, UniProt Q9M1X2); assay: X-ray crystal structure of At279 with bound small molecule; conditions: ligand likely derived from E. coli, carboxylic acid sequestered by Arg 103 and Tyr 116
T2 construct: Crystals of the heterologously expressed At279 C-terminal construct (residues 77 to 279) were obtained by vapor diffusion; His tag (pHIS8 vector) (N, cleaved yes); made in house; host or cells: E. coli BL21 (DE3)
T2 sequence (Q9M1X2 77-279): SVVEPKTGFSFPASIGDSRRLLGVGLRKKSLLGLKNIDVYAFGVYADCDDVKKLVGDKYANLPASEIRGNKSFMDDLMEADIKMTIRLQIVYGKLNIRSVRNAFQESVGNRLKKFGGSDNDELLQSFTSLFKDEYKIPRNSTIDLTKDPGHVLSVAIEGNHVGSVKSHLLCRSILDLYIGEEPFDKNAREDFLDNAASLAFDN
Experimental: Crystals of the heterologously expressed At279 C-terminal construct (residues 77 to 279) were obtained by vapor diffusion in 2 μl hanging drops incubated at 4° C. and consisting of a 1:1 mixture of protein and crystallization buffer. The crystallization buffer contained 19% (w/v) PEG 3350, 0.3 M KCl, 2 mM DTT and 100 mM TAPS buffer at pH 8.5. Prior to freezing in liquid nitrogen, native crystals were passed through a cryogenic buffer identical to the crystallization buffer except for the use of 21% (w/v) PEG 3350 and the inclusion of 20% (v/v) ethylene glycol. For heavy atom derivatization, native At279 crystals were soaked overnight in crystallization buffer differing from the crystallization solution due to an increased PEG 3350 concentration (21% (w/v)) and the inclusion of 1 mM K2PtCl4 prior to cryogenic freezing as before. A multi-wavelength anomalous dispersion (MAD) data set was collected at the Pt edge on a K2PtCl4 derivative crystal at the Stanford Synchrotron Radiation Laboratory (SSRL) on beam line BL1-5. Data were processed with HKL2000 and reduced to a unique set of indexed intensities to a resolution of 2.6 Å. A single-wavelength native data set was collected at SSRL and processed with HXL2000 to a resolution of 1.9 Å. At279 crystals belong to the P2(1)2(1)2(1) space group, with average unit cell dimensions of a=56.44 Å, b=56.96 Å, c=140.37 Å, α=β=γ=90°. […]

At287 (At1g53520) = biological target: T3, At287 (At1g53520) (Arabidopsis thaliana, UniProt Q9C8L2); assay: LC-MS analysis of fatty acids bound to purified At287 protein; conditions: protein over-expressed in and purified from E. coli, ethanol extract, negative-ion ESI
T3 construct: At279 and At287 proteins were purified to homogeneity as described above; His tag (pHIS8 vector) (N, cleaved yes); made in house; host or cells: E. coli BL21 (DE3)
T3 sequence (Q9C8L2 73-287): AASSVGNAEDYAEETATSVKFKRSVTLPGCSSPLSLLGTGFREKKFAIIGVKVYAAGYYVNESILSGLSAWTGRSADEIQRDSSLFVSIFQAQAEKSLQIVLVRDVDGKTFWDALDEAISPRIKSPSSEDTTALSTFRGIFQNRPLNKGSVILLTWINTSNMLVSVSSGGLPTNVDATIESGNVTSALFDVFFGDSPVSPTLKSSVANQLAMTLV
Experimental: as §1, §2

| SMILES | fatty acid bound to purified At279 (presence in protein extract by LC-MS) (At279 (At3g63170) [1]) | fatty acid bound to purified At279 (presence in protein extract by LC-MS) (At279 (At3g63170) [1]; listed as C12:0) | small molecule bound in At279 crystal structure (At279 (At3g63170) [2]) | small molecule bound in At279 crystal structure (At279 (At3g63170) [2]; listed as lauric acid) | fatty acid bound to purified At287 (presence in protein extract by LC-MS) (At287 (At1g53520)) | fatty acid bound to purified At287 (presence in protein extract by LC-MS) (At287 (At1g53520); listed as C12:0) | fatty acid bound to purified At279 (presence in protein extract by LC-MS) (At279 (At3g63170) [1]; listed as C14:0) | fatty acid bound to purified At287 (presence in protein extract by LC-MS) (At287 (At1g53520); listed as C14:0) | fatty acid bound to purified At279 (presence in protein extract by LC-MS) (At279 (At3g63170) [1]; listed as C16:0) | fatty acid bound to purified At287 (presence in protein extract by LC-MS) (At287 (At1g53520); listed as C16:0) | fatty acid bound to purified At279 (presence in protein extract by LC-MS) (At279 (At3g63170) [1]; listed as C18:0) | fatty acid bound to purified At287 (presence in protein extract by LC-MS) (At287 (At1g53520); listed as C18:0) |
| --- | --- | --- | --- | --- | --- | --- | --- | --- | --- | --- | --- | --- |
| CCCCCCCCCCCC(=O)O [Laurie acid, lauric acid] | bind | clearly showed the presence | sequestered in a well-organized binding pocket | bound in a cavity partially overlapping with the originally identified CHI active site | bind | clearly showed the presence | – | – | – | – | – | – |
| CCCCCCCCCCCCCC(=O)O [Myristic acid] | bind | – | – | – | bind | – | clearly showed the presence | clearly showed the presence | – | – | – | – |
| CCCCCCCCCCCCCCCC(=O)O [Palmitic acid] | bind | – | – | – | bind | – | – | – | clearly showed the presence | clearly showed the presence | – | – |
| CCCCCCCCCCCCCCCCCC(=O)O [Stearic acid] | bind | – | – | – | bind | – | – | – | – | – | clearly showed the presence | clearly showed the presence |
